From patent US9573967B2, “N-heterocyclic carbene gold complexes with anticancer properties and methods of use thereof” (KING FAHD UNIVERSITY OF PETROLEUM AND MINERALS, priority 2015, dated 2017)

What was measured:
Format in all cases: cell-based
[1] = test system: HeLa (human cervical cancer) cell line; test: In vitro cytotoxicity, MTT assay, HeLa; details: 24 h incubation with complex, read-out: IC50 values against HeLa cancer cell line
Experimental: (§1) The in vitro cytotoxicity tests were carried out for the gold(I) precursor, labeled as complex 0 and the three synthesized complexes labeled as complex 1, 2 and 3 and compared with cisplatin (standard classical anticancer drug) against three human cancer cell lines, HCT15, HeLa and A549 using MTT assay. The dose dependent cytotoxic effect was obtained by the stipulated increase in concentrations of cisplatin and gold complexes 0-3 against the fixed number of human cancer cells. The IC50 concentration of cisplatin and complexes 0-3 for different human cancer cell lines was obtained from a curve between compound concentration and percentage viability of cells (FIGS. 5-10, Table 6).
(§2) In phase contrast micrographs, a decreasing cell density and deformed cellular morphology could be observed with increasing concentration of complexes 0-3 (FIGS. 11-13). […] The IC50 concentrations of gold complexes were calculated from a separate curve between complex concentration and % viability of cells plotted in Microsoft Excel 2007 (graphs not shown) using MTT assay data and explained by logarithmic regression equations (equations not shown).
(§3) The metal precursor (complex 0) and the three synthesized compounds 1-3 were evaluated for their in vitro cytotoxic activity against HCT15 (human cancer), HeLa (human cervical cancer) and A549 (human lung carcinoma) cell lines. […]

[2] = test system: HCT15 (human cancer) cell line; test: In vitro cytotoxicity, MTT assay, HCT15; details: for IC50: MTT assay, 24 h incubation with complex, read-out: IC50 values against HCT15 cancer cell line; for IC50 against HCT15 compared with cisplatin: in words
Experimental: as §1
In phase contrast micrographs, a decreasing cell density and deformed cellular morphology could be observed with increasing concentration of complexes 0-3 (FIGS. 11-13). The dose dependent decrease in cell density was further supported by assessment of decreasing percent cell viability in MTT assay (FIGS. 5-10). The IC50 concentrations of gold complexes were calculated from a separate curve between complex concentration and % viability of cells plotted in Microsoft Excel 2007 (graphs not shown) using MTT assay data and explained by logarithmic regression equations (equations not shown).
The metal precursor (complex 0) and the three synthesized compounds 1-3 were evaluated for their in vitro cytotoxic activity against HCT15 (human cancer), HeLa (human cervical cancer) and A549 (human lung carcinoma) cell lines. The cells were seeded at 4×10^3 cells/well in 100 μL DMEM (Dulbecco's Modified Eagle's Medium) containing 10%. FBS (Fetal Bovine Serum) in 96-wells tissue culture plate and incubated for 72 h at 37° C., 5% CO2 in air and 90% relative humidity in CO2 incubator. After incubation, 100 μL of 50, 25, 12.5 and 6.25 μg/mL solutions of complexes (0-3), prepared in DMEM, were added to cells and the cultures were incubated for 24 h. The medium of wells was discarded and 100 μL DMEM containing MTT (3-(4,5-dimethylthiazol-2-yl)-2,5-diphenyltetrazolium bromide) (5 mg/mL) was added to the wells and incubated in CO2 incubator at 37° C. in dark for 4 h. After incubation, a purple colored formazan (artificial chromogenic dye, product of the reduction of water insoluble tetrazolium salts e.g., MMT by dehydrogenases and reductases) in the cells is produced and appeared as dark crystals in the bottom of the wells. The medium of culture was discarded from each well carefully to avoid disruption of monolayer and 100 μl of dimethyl sulfoxide (DMSO) was added in each well. […] The absorbance of the 96-wells plate was taken at 570 nm with Labsystems Multiskan EX-Enzyme-linked immunosorbent assay (EX-ELISA) reader against a reagent blank.

[3] = test system: A549 (human lung carcinoma) cell line; test: In vitro cytotoxicity, MTT assay, A549; details: 24 h incubation with complex, read-out: IC50 values against A549 cancer cell line
Experimental: as §1, §2, §3

Compound | IC50 [1] | IC50 [2] | IC50 [3] | IC50 against HCT15 compared with cisplatin [2]
1,3-Bis(2,6-di-isopropylphenyl)imidazol-2-ylidenegold(I)chloride [Complex 0] | 172 µM | 122 µM | 180 µM | 
N.N.[Cl][Pt][Cl] [Cisplatin, cisplatin] |  | 29.5 µM |  | 
CCN(CC)C(=S)[S][Au][CH]1N(c2c(C(C)C)cccc2C(C)C)C=CN1c1c(C(C)C)cccc1C(C)C [Complex 2, [Au(Ipr)(S2CN(C2H5)2)]] |  |  |  | moderate potency but better than cisplatin
CC(C)c1cccc(C(C)C)c1N1C=CN(c2c(C(C)C)cccc2C(C)C)[CH]1[Au][S]C(=S)N(Cc1ccccc1)Cc1ccccc1 [Complex 3, [Au(Ipr)(S2CN(C7H7)2)]] |  |  |  | moderate potency but better than cisplatin
